According to patent publication US20240101570A1 (AMGEN INC., priority 2020, published 2024):

Columns and labels:
HCT116 MTAP null cells = experiment: HCT116 MTAP null cell proliferation / viability (CellTiter-Glo, 6 days); type: cell-based; details: HCT116-MTAP null, 144 h, HCT116 MTAP null cells, 6 days, CellTiter-Glo; read-out: HCT-116 MTAP null IC50
Protocol: (§1) HCT116 MTAP null and WT cells were seeded in 96-well tissue culture plates in RPMI 1640 media+10% fetal bovine serum. Plates were incubated overnight at 37° C. and 5% CO2. Cells were then treated with an 8- or 9-point serial dilution of compound, using a top concentration of 1, or 10 μM, 1:3 serial dilution steps and, a DMSO-only control. Cells were incubated in the presence of drug for 6 days. Effects on cell viability were measured with the CellTiter-Glo® Luminescent Cell Viability Assay (Promega) per manufacturer's recommendation. Assay plates were read on an EnVision™ Multilabel Reader using the Ultra-Sensitive luminescence module. IC50 values were calculated with GraphPad Prism v 5.01 using symmetrical sigmoidal dose-response least squares fit with Hill slope fixed to −1 and top constrain to 100% or GeneData Screener using a 4-parameter logistic model to fit dose response curves.
(§2) Alternatively, compounds could be assayed with a 384 well plate format:
(§3) Compounds were pre-spotted into 384 well plates with a 22-point serial dilution of compound, using a top concentration of 10 or 50 μM, 1:2 serial dilution steps and, a DMSO-only control. HCT116 MTAP null and WT cells were then seeded as above and after 6 days effects on cell viability were measured with the CellTiter-Glo® Luminescent Cell Viability Assay (Promega). Assay plates were read as above and IC50 values were calculated with GeneData Screener using a 4-parameter logistic model to fit dose response curves. The reported IC50 represents the value where the curve transits 50% of control.

HCT116 WT cells = experiment: HCT116 WT cell proliferation / viability (CellTiter-Glo, 6 days); type: cell-based; details: Homo sapiens, HCT-116, 144 h, HCT116 WT cells, 6 days, CellTiter-Glo; read-out: HCT-116 WT IC50
Protocol: as §1, §2, §3

Question: For `COCC(C)N(Cc1ccc(C(F)(F)F)nn1)C(=O)c1cc2c3c(c(N)nc2cn1)[C@@H](C)OC3` (mixture of isomers) [Example 314, (3R)-4-amino-N-((2R)-1-methoxy-2-propanyl)-3-methyl-N-((6-(trifluoromethyl)-3-pyridazinyl)methyl)-1,3-dihydrofuro[3,4-c][1,7]naphthyridine-8-carboxamide and (3R)-4-amino-N-((2S)-1-methoxy-2-propanyl)-3-methyl-N-((6-(trifluoromethyl)-3-pyridazinyl)methyl)-1,3-dihydrofuro[3,4-c][1,7]naphthyridine-8-carboxamide], which IC50 (HCT116 MTAP null cells) is on record?
Answer: The IC50 was 254 nM.

Question: And the IC50 (HCT116 WT cells)?
Answer: The IC50 was 15200 nM.

Question: What does the source list for `COCC(C)N(Cc1ccc(C(F)(F)F)nn1)C(=O)c1ccc2nc(N)c3c(c2c1)COC3` (racemic) [Example 303, 4-amino-N-((2R)-1-methoxy-2-propanyl)-N-((6-(trifluoromethyl)-3-pyridazinyl)methyl)-1,3-dihydrofuro[3,4-c]quinoline-8-carboxamide and 4-amino-N-((2S)-1-methoxy-2-propanyl)-N-((6-(trifluoromethyl)-3-pyridazinyl)methyl)-1,3-dihydrofuro[3,4-c]quinoline-8-carboxamide]?
Answer: IC50 (HCT116 MTAP null cells): 24 nM; IC50 (HCT116 WT cells): 574 nM

Question: Which results are given for `COCC(C)N(Cc1ccc(C(F)(F)F)nn1)C(=O)c1cc2c3c(c(N)nc2cn1)COC3` (racemic) [Example 390, 4-amino-N-((2R)-1-methoxy-2-propanyl)-N-((6-(trifluoromethyl)-3-pyridazinyl)methyl)-1,3-dihydrofuro[3,4-c][1,7]naphthyridine-8-carboxamide and 4-amino-N-((2S)-1-methoxy-2-propanyl)-N-((6-(trifluoromethyl)-3-pyridazinyl)methyl)-1,3-dihydrofuro[3,4-c][1,7]naphthyridine-8-carboxamide]?
Answer: IC50 (HCT116 MTAP null cells): 262 nM; IC50 (HCT116 WT cells): 9900 nM

Question: `CC1OCc2c1c(N)nc1cnc(C(=O)N(C)Cc3ccc(Br)cn3)cc21` (racemic) [Example 433, (3R)-4-amino-N-((5-bromo-2-pyridinyl)methyl)-N,3-dimethyl-1,3-dihydrofuro[3,4-c][1,7]naphthyridine-8-carboxamide and (3S)-4-amino-N-((5-bromo-2-pyridinyl)methyl)-N,3-dimethyl-1,3-dihydrofuro[3,4-c][1,7]naphthyridine-8-carboxamide] was tested. Which IC50 (HCT116 MTAP null cells) did it give?
Answer: The IC50 was 344 nM.

Question: And the IC50 (HCT116 WT cells)?
Answer: The IC50 was 21200 nM.

Question: How did the IC50 (HCT116 MTAP null cells) turn out when `N#Cc1ccc(CN(C(=O)c2ccc3nc(N)c4c(c3c2)COC4)C2CCCn3ncnc32)nc1` (racemic) [Example 448, 4-amino-N-((5-cyano-2-pyridinyl)methyl)-N-((8R)-5,6,7,8-tetrahydro[1,2,4]triazolo[1,5-a]pyridin-8-yl)-1,3-dihydrofuro[3,4-c]quinoline-8-carboxamide and 4-amino-N-((5-cyano-2-pyridinyl)methyl)-N-((8S)-5,6,7,8-tetrahydro[1,2,4]triazolo[1,5-a]pyridin-8-yl)-1,3-dihydrofuro[3,4-c]quinoline-8-carboxamide] was run?
Answer: The IC50 was 124 nM.

Question: And the IC50 (HCT116 WT cells)?
Answer: The IC50 was 2100 nM.

Question: Which IC50 (HCT116 MTAP null cells) does the source give for `CC(c1ncccn1)N(Cc1ccc(C2COC2)cc1)C(=O)c1ccc2nc(N)c3c(c2c1)COC3` (racemic) [Example 449, 4-amino-N-(4-(3-oxetanyl)benzyl)-N-((1R)-1-(2-pyrimidinyl)ethyl)-1,3-dihydrofuro[3,4-c]quinoline-8-carboxamide and 4-amino-N-(4-(3-oxetanyl)benzyl)-N-((1S)-1-(2-pyrimidinyl)ethyl)-1,3-dihydrofuro[3,4-c]quinoline-8-carboxamide] here?
Answer: Its IC50 is 42 nM.

Question: What about the IC50 (HCT116 WT cells) of the same compound?
Answer: The IC50 was 1230 nM.

Question: What does the source list for `CO[C@@H]1COCC[C@H]1N(Cc1ccc(C(F)(F)F)cn1)C(=O)c1ccc2nc(N)c3c(c2c1)COC3` (racemic) [Example 459, 4-amino-N-((3R,4S)-3-methoxytetrahydro-2H-pyran-4-yl)-N-((5-(trifluoromethyl)-2-pyridinyl)methyl)-1,3-dihydrofuro[3,4-c]quinoline-8-carboxamide and 4-amino-N-((3S,4R)-3-methoxytetrahydro-2H-pyran-4-yl)-N-((5-(trifluoromethyl)-2-pyridinyl)methyl)-1,3-dihydrofuro[3,4-c]quinoline-8-carboxamide]?
Answer: IC50 (HCT116 MTAP null cells): 29 nM; IC50 (HCT116 WT cells): 305 nM

Question: Which IC50 (HCT116 MTAP null cells) does the source give for `CO[C@@H]1CCOC[C@H]1N(Cc1ccc(C(F)(F)F)cn1)C(=O)c1ccc2nc(N)c3c(c2c1)COC3` (racemic) [Example 460, 4-amino-N-((3R,4R)-4-methoxytetrahydro-2H-pyran-3-yl)-N-((5-(trifluoromethyl)-2-pyridinyl)methyl)-1,3-dihydrofuro[3,4-c]quinoline-8-carboxamide and 4-amino-N-((3S,4S)-4-methoxytetrahydro-2H-pyran-3-yl)-N-((5-(trifluoromethyl)-2-pyridinyl)methyl)-1,3-dihydrofuro[3,4-c]quinoline-8-carboxamide] here?
Answer: The IC50 was 19 nM.

Question: And the IC50 (HCT116 WT cells)?
Answer: The IC50 was 287 nM.

Question: Which results are given for `CC(CF)N(Cc1ccc(C#N)cn1)C(=O)c1ccc2nc(N)c3c(c2c1)COC3` (racemic) [Example 473, 4-amino-N-((5-cyano-2-pyridinyl)methyl)-N-((2R)-1-fluoro-2-propanyl)-1,3-dihydrofuro[3,4-c]quinoline-8-carboxamide and 4-amino-N-((5-cyano-2-pyridinyl)methyl)-N-((2S)-1-fluoro-2-propanyl)-1,3-dihydrofuro[3,4-c]quinoline-8-carboxamide]?
Answer: IC50 (HCT116 MTAP null cells): 809 nM; IC50 (HCT116 WT cells): > 10000 nM

Question: For `COCC(C)N(Cc1ccc(C(F)(F)F)nn1)C(=O)c1cc2c3c(c(N)nc2cc1Cl)COC3` (racemic) [Example 487, 4-amino-7-chloro-N-((2R)-1-methoxy-2-propanyl)-N-((6-(trifluoromethyl)-3-pyridazinyl)methyl)-1,3-dihydrofuro[3,4-c]quinoline-8-carboxamide and 4-amino-7-chloro-N-((2S)-1-methoxy-2-propanyl)-N-((6-(trifluoromethyl)-3-pyridazinyl)methyl)-1,3-dihydrofuro[3,4-c]quinoline-8-carboxamide], which IC50 (HCT116 MTAP null cells) is on record?
Answer: Its IC50 is 88 nM.

Question: What about the IC50 (HCT116 WT cells) of the same compound?
Answer: The IC50 was 1370 nM.

Question: What does the source list for `COCC(C)N(Cc1ccc(C(F)(F)F)nn1)C(=O)c1cc2c3c(c(N)nc2cc1F)COC3` (racemic) [Example 488, 4-amino-7-fluoro-N-((2R)-1-methoxy-2-propanyl)-N-((6-(trifluoromethyl)-3-pyridazinyl)methyl)-1,3-dihydrofuro[3,4-c]quinoline-8-carboxamide and 4-amino-7-fluoro-N-((2S)-1-methoxy-2-propanyl)-N-((6-(trifluoromethyl)-3-pyridazinyl)methyl)-1,3-dihydrofuro[3,4-c]quinoline-8-carboxamide]?
Answer: IC50 (HCT116 MTAP null cells): 49 nM; IC50 (HCT116 WT cells): 696 nM

Question: Which IC50 (HCT116 MTAP null cells) does the source give for `CC(c1ncccn1)N(Cc1ccc(C#N)cn1)C(=O)c1ccc2nc(N)c3c(c2c1)COC3` (racemic) [Example 616, 4-amino-N-((5-cyano-2-pyridinyl)methyl)-N-((1R)-1-(2-pyrimidinyl)ethyl)-1,3-dihydrofuro[3,4-c]quinoline-8-carboxamide and 4-amino-N-((5-cyano-2-pyridinyl)methyl)-N-((1S)-1-(2-pyrimidinyl)ethyl)-1,3-dihydrofuro[3,4-c]quinoline-8-carboxamide] here?
Answer: The IC50 was 18 nM.

Question: What about the IC50 (HCT116 WT cells) of the same compound?
Answer: Its IC50 is 419 nM.

Question: What does the source list for `CC(c1ncccn1)N(Cc1ccc(C(F)(F)F)cn1)C(=O)c1ccc2nc(N)c3c(cnn3C)c2c1` (racemic) [Example 618, 4-amino-3-methyl-N-((1R)-1-(2-pyrimidinyl)ethyl)-N-((5-(trifluoromethyl)-2-pyridinyl)methyl)-3H-pyrazolo[3,4-c]quinoline-8-carboxamide and 4-amino-3-methyl-N-((1S)-1-(2-pyrimidinyl)ethyl)-N-((5-(trifluoromethyl)-2-pyridinyl)methyl)-3H-pyrazolo[3,4-c]quinoline-8-carboxamide]?
Answer: IC50 (HCT116 MTAP null cells): 33 nM; IC50 (HCT116 WT cells): 264 nM

Question: What does the source list for `Cc1noc2c1c(N)nc1ccc(C(=O)N(Cc3ccc(C(F)(F)F)cn3)C(C)c3ncccn3)cc12` (racemic) [Example 619, 4-amino-3-methyl-N-((1R)-1-(2-pyrimidinyl)ethyl)-N-((5-(trifluoromethyl)-2-pyridinyl)methyl)[1,2]oxazolo[4,5-c]quinoline-8-carboxamide and 4-amino-3-methyl-N-((1S)-1-(2-pyrimidinyl)ethyl)-N-((5-(trifluoromethyl)-2-pyridinyl)methyl)[1,2]oxazolo[4,5-c]quinoline-8-carboxamide]?
Answer: IC50 (HCT116 MTAP null cells): 61 nM; IC50 (HCT116 WT cells): 1060 nM

Question: For `COCC(C)N(Cc1ccc(C(F)(F)F)cn1)C(=O)c1ccc2nc(N)c3c(C)noc3c2c1` (racemic) [Example 634, 4-amino-N-((2R)-1-methoxy-2-propanyl)-3-methyl-N-((5-(trifluoromethyl)-2-pyridinyl)methyl)[1,2]oxazolo[4,5-c]quinoline-8-carboxamide and 4-amino-N-((2S)-1-methoxy-2-propanyl)-3-methyl-N-((5-(trifluoromethyl)-2-pyridinyl)methyl)[1,2]oxazolo[4,5-c]quinoline-8-carboxamide], which IC50 (HCT116 MTAP null cells) is on record?
Answer: The IC50 was 34 nM.

Question: What about the IC50 (HCT116 WT cells) of the same compound?
Answer: The IC50 was 953 nM.
